Source: patent US7977371B2, “Pyrrole derivative having ureido group and aminocarbonyl group as substituents” (Santen Pharmaceutical Co., Ltd., priority 2007, dated 2011)
Where a name gives a salt, the structure may show the parent alone.

test system: TNF-α-induced IL-6 production in normal human skin fibroblast-derived CCD-1059Sk cells; assay: Test for measurement of inhibitory activity against TNF-α-induced IL-6 production; format: cell-based; settings: Homo sapiens, CCD-1059Sk, 16 h, test compound at 10 μM, TNF-α stimulation 16 hours, inhibition ratio of 100% or more is indicated as 100%
Description: 1. Test for Measurement of Inhibitory Activity Against IL-6 Production
An inhibitory effect on TNF-α-induced IL-6 production in normal human skin fibroblast-derived CCD-1059Sk cells (ATCC No. CRL-2072) was evaluated. The amount of IL-6 was determined by the homogeneous time-resolved fluorescence method using HTRF™ Human IL-6 kit (Cat. No. 62IL6PEB, manufactured by CIS-Bio international, Inc.). Specific test methods will be described below.
(Preparation of Test Compound Solution)
After a test compound was dissolved in dimethyl sulfoxide, the resulting solution was diluted with D-MEM medium containing 0.1% heat-inactivated fetal bovine serum, 0.1 mM MEM non-essential amino acid solution, 100 U/mL penicillin and 100 μg/mL streptomycin (hereinafter referred to as “medium”), whereby a 40 μM test compound solution was prepared.
(Test Method and Measurement Method)
1) CCD-1059Sk cells prepared at a density of 3×10^5 cells/mL were inoculated in a 384-well plate in an amount of 10 μL per well such that the cell density was 3×10^3 cells/well.
2). After the plate was incubated at 37° C. for several hours in a CO2 incubator, 5 μL of the test compound was added to each well.
3) After the plate was incubated at 37° C. for 1 hour in a CO2 incubator, 5 μL of a 40 ng/mL TNF-α solution was added to each well.
4) After the plate was incubated at 37° C. for 16 hours in a CO2 incubator, 10 μL of a cryptate-labeled anti-IL-6 antibody and an XL665-labeled anti-IL-6 antibody containing potassium fluoride was added to each well.
5) After the plate was incubated at room temperature for several hours, a fluorescence intensity ratio (665 nm/620 nm) was determined for each well using a multimode plate reader Analyse™ HT (manufactured by Molecular Device Corporation) and Criterion Host software version 2.00 (manufactured by Molecular Device Corporation), and then, the amount of IL-6 was calculated.
6) The same procedures as in the above 1) to 5) were performed except that 0.4% dimethyl sulfoxide was added in place of the test compound, and the obtained result was designated as the control.
7) The same procedures as in the above 1) to 5) were performed except that 0.4% dimethyl sulfoxide and the medium were added in place of the test compound and the TNF-α solution, respectively, and the obtained result was designated as the background.
(Calculation Formula of IL-6 Production Inhibition Ratio)
An IL-6 production inhibition ratio (%) was calculated from the following formula. IL-6 Production Inhibition Ratio (%)=100×{1−[(Amount of IL-6 for Test Compound)−(Amount of IL-6 for Background)/(Amount of IL-6 for Control)−(Amount of IL-6 for Background)]} (Evaluation Results)

`NC(=O)Nc1[nH]c(-c2cc(F)ccc2OCCCO)cc1C(N)=O` [Compound 4-35, 2-Aminocarbonylamino-5-[5-fluoro-2-(3-hydroxypropyloxy)phenyl]pyrrole-3-carboxamide] and `CN(CCO)CCOc1ccc(F)cc1-c1cc(C(N)=O)c(NC(N)=O)[nH]1` [Compound 8-17] are the same in inhibition at 10 µM: 100% for the first, 100% for the second.

Compared with `COc1ccc(OC)c(-c2cc(C(N)=O)c(NC(N)=O)[nH]2)c1` [Compound 1-17, 2-Aminocarbonylamino-5-(2,5-dimethoxyphenyl) pyrrole-3-carboxamide], `COc1ccc(F)cc1-c1cc(C(N)=O)c(NC(N)=O)[nH]1` [Compound 1-19, 2-Aminocarbonylamino-5-(5-fluoro-2-methoxyphenyl)pyrrole-3-carboxamide] is higher in inhibition at 10 µM: 96% for the first, 100% for the second.

First: CNCCOc1ccccc1-c1cc(C(N)=O)c(NC(N)=O)[nH]1 [Compound 20-1, 2-Aminocarbonylamino-5-[2-(2-methylaminoethyloxy)phenyl]pyrrole-3-carboxamide hydrochloride]
Second: NC(=O)Nc1[nH]c(-c2ccccc2OCCCF)cc1C(N)=O [Compound 4-24, 2-Aminocarbonylamino-5-[2-(3-fluoropropyloxy)phenyl] pyrrole-3-carboxamide]
The inhibition at 10 µM of the first is lower: 95% for the first, 99% for the second.

`C#CCOc1ccc(Cl)cc1-c1cc(C(N)=O)c(NC(N)=O)[nH]1` [Compound 4-50, 2-Aminocarbonylamino-5-[5-chloro-2-(2-propynyloxy)phenyl]pyrrole-3-carboxamide] and `NC(=O)Nc1[nH]c(-c2cc(Cl)ccc2O)cc1C(N)=O` [Compound 3-4, 2-Aminocarbonylamino-5-(5-chloro-2-hydroxyphenyl)pyrrole-3-carboxamide] are the same in inhibition at 10 µM: 100% for the first, 100% for the second.

Going from `CC1CCN(CCOc2ccccc2-c2cc(C(N)=O)c(NC(N)=O)[nH]2)CC1` [Compound 8-10] to `NC(=O)Nc1[nH]c(-c2ccccc2OCCCN2CCCC2)cc1C(N)=O` [Compound 8-1, 2-Aminocarbonylamino-5-[2-[3-(pyrrolidin-1-yl)propyloxy]phenyl]pyrrole-3-carboxamide], the inhibition at 10 µM falls from 98% to 97%.

Compared with `NC(=O)Nc1[nH]c(-c2ccccc2C(F)(F)F)cc1C(N)=O` [Compound 1-13, 2-Aminocarbonylamino-5-(2-trifluoromethylphenyl)pyrrole-3-carboxamide], `NC(=O)Nc1[nH]c(-c2ccccc2F)cc1C(N)=O` [Compound 1-45, 2-Aminocarbonylamino-5-(2-fluorophenyl) pyrrole-3-carboxamide] is higher in inhibition at 10 µM: 93% for the first, 95% for the second.

Compared with `CSCc1cccc(-c2cc(C(N)=O)c(NC(N)=O)[nH]2)c1` [Compound 15-1, 2-Aminocarbonylamino-5-(3-methylthiomethylphenyl)pyrrole-3-carboxamide], `NC(=O)Nc1[nH]c(-c2cccc(F)c2)cc1C(N)=O` [Compound 1-28, 2-Aminocarbonylamino-5-(3-fluorophenyl) pyrrole-3-carboxamide] is lower in inhibition at 10 µM: 98% for the first, 97% for the second.

First: N#CCOc1cccc(-c2cc(C(N)=O)c(NC(N)=O)[nH]2)c1 [Compound 4-9, 2-Aminocarbonylamino-5-(3-cyanomethyloxyphenyl) pyrrole-3-carboxamide]
Second: C#Cc1cccc(-c2cc(C(N)=O)c(NC(N)=O)[nH]2)c1 [Compound 11-1, 2-Aminocarbonylamino-5-(3-ethynylphenyl)pyrrole-3-carboxamide]
The inhibition at 10 µM of the first is lower: 89% for the first, 100% for the second.

First: NC(=O)Nc1[nH]c(-c2cccc(C#CCO)c2)cc1C(N)=O [Compound 10-3]
Second: NC(=O)Nc1[nH]c(-c2cccc([N+](=O)[O-])c2)cc1C(N)=O [Compound 1-6, 2-Aminocarbonylamino-5-(3-nitrophenyl) pyrrole-3-carboxamide]
The inhibition at 10 µM of the first is higher: 100% for the first, 92% for the second.

Going from `NC(=O)Nc1[nH]c(-c2cc(F)ccc2O)cc1C(N)=O` [Compound 3-3, 2-Aminocarbonylamino-5-(5-fluoro-2-hydroxyphenyl)pyrrole-3-carboxamide] to `Cc1ccccc1-c1cc(C(N)=O)c(NC(N)=O)[nH]1` [Compound 1-42, 2-Aminocarbonylamino-5-(2-methylphenyl) pyrrole-3-carboxamide], the inhibition at 10 µM falls from 100% to 94%.

First: NC(=O)Nc1[nH]c(-c2cccc(Cl)c2)c(CO)c1C(N)=O [Compound 18-1, 2-Aminocarbonylamino-5-(3-chlorophenyl)-4-(hydroxymethyl)pyrrole-3-carboxamide]
Second: NC(=O)Nc1[nH]c(-c2cccc(Cl)c2)c(C=O)c1C(N)=O [Compound 17-1, 2-Aminocarbonylamino-5-(3-chlorophenyl)-4-formylpyrrole-3-carboxamide]
The inhibition at 10 µM of the first is lower: 90% for the first, 98% for the second.

Going from `N#Cc1ccc(-c2cc(C(N)=O)c(NC(N)=O)[nH]2)cc1` [Compound 1-15, 2-Aminocarbonylamino-5-(4-cyanophenyl) pyrrole-3-carboxamide] to `NC(=O)Nc1[nH]c(-c2ccc(Br)cc2)cc1C(N)=O` [Compound 1-1, 2-Aminocarbonylamino-5-(4-bromophenyl)pyrrole-3-carboxamide], the inhibition at 10 µM rises from 80% to 94%.

First: NC(=O)Nc1[nH]c(-c2ccc(F)cc2)c(Cl)c1C(N)=O [Compound 7-3]
Second: C=Cc1ccc(-c2cc(C(N)=O)c(NC(N)=O)[nH]2)cc1 [Compound 9-1, 2-Aminocarbonylamino-5-(4-vinylphenyl)pyrrole-3-carboxamide]
The inhibition at 10 µM of the first is lower: 98% for the first, 100% for the second.

`NC(=O)Nc1[nH]c(-c2cc(Cl)ccc2OCCN2CCCCC2)cc1C(N)=O` [Compound 8-14] and `NC(=O)Nc1[nH]c(-c2cc(Cl)ccc2OCCN2CCC(CCO)CC2)cc1C(N)=O` [Compound 8-16] are the same in inhibition at 10 µM: 100% for the first, 100% for the second.

Going from `Cc1cc(-c2cc(C(N)=O)c(NC(N)=O)[nH]2)c(C)s1` [Compound 1-51, 2-Aminocarbonylamino-5-(2,5-dimethylthiophen-3-yl)pyrrole-3-carboxamide] to `NC(=O)Nc1[nH]c(-c2ccc(Cl)s2)cc1C(N)=O` [Compound 1-48, 2-Aminocarbonylamino-5-(5-chlorothiophen-2-yl)pyrrole-3-carboxamide], the inhibition at 10 µM rises from 96% to 98%.

First: NC(=O)Nc1[nH]c(-c2ccccc2)cc1C(N)=O [Compound 1-4, 2-Aminocarbonylamino-5-phenylpyrrole-3-carboxamide]
Second: CN(C)CCCOc1ccccc1-c1cc(C(N)=O)c(NC(N)=O)[nH]1 [Compound 4-30, 2-Aminocarbonylamino-5-[2-(3-dimethylaminopropyloxy)phenyl]pyrrole-3-carboxamide]
The inhibition at 10 µM of the first is lower: 88% for the first, 99% for the second.

same assay, conditions: test compound at 10 μM, TNF-α stimulation 16 hours, inhibition ratio of 100% or more is indicated as 100%

For `COc1ccc(Cl)cc1-c1cc(C(N)=O)c(NC(N)=O)[nH]1` [Compound 1-22, 2-Aminocarbonylamino-5-(5-chloro-2-methoxyphenyl)pyrrole-3-carboxamide], the “IL-6 production inhibition ratio” value was 100%.
